Experimental data reported in US9315494B2, “Alkyl-amide-substituted pyridyl compounds useful as modulators of IL-12, IL-23 and/or IFNα responses” (Bristol-Myers Squibb Company, priority 2012, dated 2016).
Where two headings read alike, the source gives them in different places.

Assays:
[1] = tested on: IL-23-stimulated STAT-dependent luciferase reporter in Kit225 T cells; assay: Kit225 T cell assay, IL-23 stimulated STAT-dependent luciferase reporter; type: cell-based, human
Procedure, shortened: (§1)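 Kit225 T cells carrying a stably integrated STAT-luciferase reporter, in RPMI with 10% heat-inactivated FBS, were stimulated with 20 ng/mL IL-23 or 200 U/mL IFNα for 5-6 h. Readout was luminescence from the luciferase reporter.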

[2] = tested on: IFNα-stimulated STAT-dependent luciferase reporter in Kit225 T cells; assay: Kit225 T cell assay, IFNα stimulated STAT-dependent luciferase reporter; type: cell-based, human
Procedure, shortened: as §1

[3] = Kit225 T cells, 20 ng/mL human recombinant IL-23, 5-6 hours, luciferase, read-out: IL23 (Kit225 T Cell Inhibition Data)
[4] = Kit225 T cells, 200 U/mL human recombinant IFNα, 5-6 hours, luciferase, read-out: IFNα (Kit225 T Cell Inhibition Data)
[5] = Homo sapiens, KIT225, read-out: IL23 (Kit225 T Cell Inhibition Data)
[6] = Homo sapiens, KIT225, read-out: IFNα (Kit225 T Cell Inhibition Data)

| Structure (SMILES) | IC50 [1, 3] | IC50 [2, 4] | IC50 [1, 5] | IC50 [2, 6] |
| --- | --- | --- | --- | --- |
| CNC(=O)c1ccnc(Nc2cc(Nc3cc(F)cc(F)c3OC)c(C(=O)NC)cn2)c1 [Example 273] | 223 nM | 160 nM |  |  |
| CNC(=O)c1cnc(Nc2cc(C(=O)N(C)C)ccn2)cc1Nc1cc(F)cc(F)c1OC [Example 274] | 336 nM | 190 nM |  |  |
| CNC(=O)c1ccnc(Nc2cc(Nc3ccc(F)cc3OC)c(C(=O)NC)cn2)c1 [Example 275] | 1040 nM | 680 nM |  |  |
| CNC(=O)c1cnc(Nc2cc(C(N)=O)ccn2)cc1Nc1cccc(F)c1OC [Example 276] | 1340 nM | 1170 nM |  |  |
| CNC(=O)c1cnc(Nc2cc(C(=O)N(C)C)ccn2)cc1Nc1cccc(F)c1OC [Example 277] | 270 nM | 240 nM |  |  |
| CNC(=O)c1cnc(Nc2cc(C(=O)NCC#N)ccn2)cc1Nc1cccc(F)c1OC [Example 278] | 374 nM | 960 nM |  |  |
| CNC(=O)c1cnc(Nc2ccc(F)cn2)cc1Nc1ccccc1NS(C)(=O)=O [Example 279] | 476 nM | 140 nM |  |  |
| CNC(=O)c1cnc(Nc2ccc(F)cn2)cc1Nc1ccccc1NC(C)=O [Example 280] | 5050 nM | 5990 nM |  |  |
| CNC(=O)c1cnc(Nc2cc(C#N)ccn2)cc1Nc1ccccc1NS(C)(=O)=O [Example 281] | 140 nM | 140 nM |  |  |
| CNC(=O)c1cnc(Nc2ccc3ccccc3n2)cc1NC1CCCC1(C)F (stereo not drawn) [Example 284] | 3000 nM | 3630 nM |  |  |
| CNC(=O)c1cnc(Nc2ccc3ccccc3n2)cc1NC1CCC(F)CC1 (stereo not drawn) [Example 287] | 7940 nM | 10200 nM |  |  |
| CNC(=O)c1cnc(Nc2ccc3ccccc3n2)cc1NC1CCCC1C(N)=O (stereo not drawn) [Example 288] | 3150 nM | 1310 nM |  |  |
| CNC(=O)c1cnc(Nc2ccc(C(F)(F)F)cn2)cc1NC1CCCCC1C(N)=O (stereo not drawn) [Example 290] | 11400 nM | 6590 nM |  |  |
| CNC(=O)c1cnc(Nc2ccc(C(F)(F)F)cn2)cc1NC1CCCC1C(N)=O (stereo not drawn) [Example 291] | 3730 nM | 3570 nM |  |  |
| CNC(=O)c1cnc(Nc2ccc3ccccc3n2)cc1NC1CCC(F)(F)CC1 [Example 292] | 4720 nM | 5600 nM |  |  |
| CNC(=O)c1cnc(Nc2ccc3ccccc3n2)cc1NC1CCC(F)(F)CC1O (stereo not drawn) [Example 293] | 4780 nM | 11400 nM |  |  |
| CNC(=O)c1cnc(Nc2ccc3ccccc3n2)cc1NC1CCCC1(F)F (stereo not drawn) [Example 294] |  |  | 6350 nM | 4900 nM |
| CCNC(=O)c1cnc(Nc2ccc(F)cn2)cc1Nc1ccccc1C(N)=O [Example 295] | 7300 nM | 3290 nM |  |  |
| CCNC(=O)c1cnc(Nc2ccc(F)cn2)cc1Nc1ccccc1OC [Example 296] | 7160 nM | 2720 nM |  |  |
| CCNC(=O)c1cnc(Nc2ccc(F)cn2)cc1Nc1ccccc1S(C)(=O)=O [Example 297] | 250 nM | 600 nM |  |  |
| CNC(=O)c1cnc(Nc2ccccn2)cc1Nc1ccc(F)cc1S(C)(=O)=O [Example 299] | 270 nM | 90 nM |  |  |

| Structure (SMILES) | IC50 [1, 3] | IC50 [2, 4] | IC50 [1, 5] | IC50 [2, 6] |
| --- | --- | --- | --- | --- |
| CNC(=O)c1cnc(Nc2cc(C)nc(C)n2)cc1Nc1ccccc1S(C)(=O)=O [Example 300] | 280 nM | 130 nM |  |  |
| CNC(=O)c1cnc(Nc2ccc(-n3cc(F)ccc3=O)cn2)cc1Nc1ccccc1S(C)(=O)=O [Example 301] | 3160 nM | 1460 nM |  |  |
| CNC(=O)c1cnc(Nc2ccc(F)cn2)cc1Nc1ccc(C(N)=O)cc1S(C)(=O)=O [Example 303] | 2340 nM | 2650 nM |  |  |
| CNC(=O)c1ccc(Nc2cc(Nc3ccc(F)cn3)ncc2C(=O)NC)c(S(C)(=O)=O)c1 [Example 304] | 1240 nM | 570 nM |  |  |
| CNC(=O)c1cnc(Nc2ccc(F)cn2)cc1Nc1ccc(C(=O)N2CCOCC2)cc1S(C)(=O)=O [Example 305] | 2650 nM | 3110 nM |  |  |
| CNC(=O)c1cnc(Nc2ccc(F)cn2)cc1Nc1ccc(C(=O)N(C)C)cc1S(C)(=O)=O [Example 306] | 2530 nM | 560 nM |  |  |
| CNC(=O)c1cnc(Nc2ccc(F)cn2)cc1Nc1ccc(C(=O)NC2CC2F)cc1S(C)(=O)=O (stereo not drawn) [Example 307] | 3740 nM | 1540 nM |  |  |
| CNC(=O)c1cnc(Nc2ccc(F)cn2)cc1Nc1ccc(C(=O)N2CC(F)(F)C2)cc1S(C)(=O)=O [Example 308] | 1860 nM | 1160 nM |  |  |
| CNC(=O)c1cnc(Nc2ccc(F)cn2)cc1Nc1ccc(C(=O)NC2CC2)cc1S(C)(=O)=O [Example 309] | 1920 nM | 630 nM |  |  |
| CNC(=O)c1cnc(Nc2ccc(F)cn2)cc1Nc1ccc(C#N)cc1S(C)(=O)=O [Example 310] |  |  | 1080 nM | 590 nM |
| CNC(=O)c1cnc(Nc2ccc(F)cn2)cc1Nc1ccc(-c2ncco2)cc1S(C)(=O)=O [Example 311] | 190 nM | 160 nM |  |  |
| CNC(=O)c1cnc(Nc2ccc(F)cn2)cc1Nc1ccc(-c2nnco2)cc1S(C)(=O)=O [Example 312] | 590 nM | 1020 nM |  |  |
| CNC(=O)c1cnc(Nc2ccc(F)cn2)cc1Nc1cccnc1OC [Example 313] | 1330 nM | 500 nM |  |  |
| CNC(=O)c1cnc(Nc2cc(C)nc(C)n2)cc1Nc1cccnc1OC [Example 314] | 190 nM | 80 nM |  |  |
| CNC(=O)c1cnc(Nc2ccc(F)cn2)cc1Nc1cccc(C(=O)NC)c1OC [Example 316] | 70 nM | 100 nM |  |  |
| CNC(=O)c1cnc(Nc2ccc(F)cn2)cc1Nc1cccc(C(=O)NC2CC2)c1OC [Example 317] | 210 nM | 110 nM |  |  |
| CNC(=O)c1cnc(Nc2cc(C)c(F)cn2)cc1Nc1cccc(C(=O)NC2CC2)c1OC [Example 318] | 130 nM | 130 nM |  |  |
| CNC(=O)c1cnc(Nc2cc(C)c(F)cn2)cc1Nc1cccc(C(N)=O)c1OC [Example 319] | 90 nM | 10 nM |  |  |
| CNC(=O)c1cnc(Nc2cc(C)c(F)cn2)cc1Nc1cccc(C(=O)NC)c1OC [Example 320] | 50 nM | 30 nM |  |  |
| CNC(=O)c1cnc(Nc2cc(C)c(F)cn2)cc1Nc1cccc(C(=O)NCCN2CCOCC2)c1OC [Example 322] | 70 nM | 30 nM |  |  |
| CNC(=O)c1cnc(Nc2cc(C)c(F)cn2)cc1Nc1cccc(C(=O)NCC2CC2)c1OC [Example 324] | 220 nM | 70 nM |  |  |

| Structure (SMILES) | IC50 [1, 3] | IC50 [2, 4] | IC50 [1, 5] | IC50 [2, 6] |
| --- | --- | --- | --- | --- |
| CNC(=O)c1cnc(Nc2cc(C)c(F)cn2)cc1Nc1cccc(C(=O)Nc2ccccc2)c1OC [Example 328] | 600 nM | 120 nM |  |  |
| CNC(=O)c1cnc(Nc2cc(C)c(F)cn2)cc1Nc1cccc(C(=O)NCC(O)c2ccccc2)c1OC (stereo not drawn) [Example 331] | 60 nM | 40 nM |  |  |
| CNC(=O)c1cnc(Nc2cc(C)c(F)cn2)cc1Nc1cccc(C(=O)NCC2CCC2)c1OC [Example 332] | 380 nM | 130 nM |  |  |
| CNC(=O)c1cnc(Nc2cc(C)c(F)cn2)cc1Nc1cccc(C(=O)NCCC(C)(C)O)c1OC [Example 333] | 120 nM | 90 nM |  |  |
| CNC(=O)c1cnc(Nc2cc(C)c(F)cn2)cc1Nc1cccc(C(=O)NCCO)c1OC [Example 336] | 400 nM | 440 nM |  |  |
| CNC(=O)c1cnc(Nc2cc(C)c(F)cn2)cc1Nc1cccc(C(=O)NCCc2ccccc2)c1OC [Example 337] | 110 nM | 80 nM |  |  |
| CNC(=O)c1cnc(Nc2cc(C)c(F)cn2)cc1Nc1cccc(C(=O)NCCC(C)C)c1OC [Example 338] | 400 nM | 110 nM |  |  |
| CCCNC(=O)c1cccc(Nc2cc(Nc3cc(C)c(F)cn3)ncc2C(=O)NC)c1OC [Example 339] | 50 nM | 30 nM |  |  |
| CNC(=O)c1cnc(Nc2cc(C)c(F)cn2)cc1Nc1cccc(C(=O)NCC(C)(C)C)c1OC [Example 340] | 220 nM | 120 nM |  |  |
| CNC(=O)c1cnc(Nc2cc(C)c(F)cn2)cc1Nc1cccc(C(=O)NCC2(O)CCC2)c1OC [Example 342] | 150 nM | 130 nM |  |  |
| CNC(=O)c1cnc(Nc2cc(C)c(F)cn2)cc1Nc1cccc(C(=O)NCC2(C)COC2)c1OC [Example 343] | 160 nM | 140 nM |  |  |
| CNC(=O)c1cnc(Nc2cc(C)c(F)cn2)cc1Nc1cccc(C(=O)NCC(F)(F)F)c1OC [Example 346] | 40 nM | 20 nM |  |  |
| CNC(=O)c1cnc(Nc2cc(C)c(F)cn2)cc1Nc1cccc(C(=O)NCC(C)(C)O)c1OC [Example 347] | 190 nM | 70 nM |  |  |
| CNC(=O)c1cnc(Nc2cc(C)c(F)cn2)cc1Nc1cccc(C(=O)NCCCO)c1OC [Example 348] | 430 nM | 180 nM |  |  |
| CNC(=O)c1cnc(Nc2cc(C)c(F)cn2)cc1Nc1cccc(C(=O)NCCCOC)c1OC [Example 349] | 60 nM | 60 nM |  |  |
| CNC(=O)c1cnc(Nc2cc(C)c(F)cn2)cc1Nc1cccc(C(=O)NCC(C)C)c1OC [Example 350] | 80 nM | 80 nM |  |  |
| CNC(=O)c1cnc(Nc2cc(C)c(F)cn2)cc1Nc1cccc(C(=O)NCc2ccccc2)c1OC [Example 351] | 60 nM | 20 nM |  |  |
| CNC(=O)c1cnc(Nc2cc(C)c(F)cn2)cc1Nc1cccc(C(=O)NCCOC)c1OC [Example 352] | 20 nM | 20 nM |  |  |
| CNC(=O)c1cnc(Nc2cc(C)c(F)cn2)cc1Nc1cccc(C(=O)NCc2c[nH]c3ccccc23)c1OC [Example 353] | 250 nM | 160 nM |  |  |
| CNC(=O)c1cnc(Nc2cc(C)c(F)cn2)cc1Nc1cccc(C(=O)NCC2(C#N)CC2)c1OC [Example 354] | 150 nM | 130 nM |  |  |
| CCNC(=O)c1cccc(Nc2cc(Nc3cc(C)c(F)cn3)ncc2C(=O)NC)c1OC [Example 355] | 30 nM | 30 nM |  |  |
